From PubChem BioAssay AID248 (DTP/NCI, 2004)
“And” between values parts separate entries of the source, which are not always exact repeats. Identical values can stand only once. Toxic doses and inconclusive results are not listed. No stated cut-off is given here; in the data, active means T/C of 150% or more; inactive means T/C below 125%.

System: L1210 leukemia ip in BDF1 mice, survival T/C
Experiment: NCI In Vivo Anticancer Drug Screen. Data for tumor model L1210 Leukemia (intraperitoneal) in B6D2F1 (BDF1) mice
Conditions: endpoint: mean survival time, higher = longer survival
In short: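 Mice bearing the transplanted tumor received compound or vehicle. Survival of the treated group was divided by that of the vehicle-treated control group to give the ratio.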

[1] = dose: 100.0 mg/kg/injection, schedule: Q01DX001 (ip), vehicle: saline
[2] = dose: 200.0 mg/kg/injection, schedule: Q01DX001 (ip), vehicle: saline
[3] = dose: 400.0 mg/kg/injection, schedule: Q01DX001 (ip), vehicle: saline
[4] = dose: 50.0 mg/kg/injection, schedule: Q01DX001 (ip), vehicle: carboxymethylcellulose (CMC)
[5] = dose: 100.0 mg/kg/injection, schedule: Q01DX001 (ip), vehicle: carboxymethylcellulose (CMC)
[6] = dose: 200.0 mg/kg/injection, schedule: Q01DX001 (ip), vehicle: carboxymethylcellulose (CMC)
[7] = dose: 50.0 mg/kg/injection, schedule: Q01DX009 (ip), vehicle: saline with Tween-80
[8] = dose: 100.0 mg/kg/injection, schedule: Q04DX003 (ip), vehicle: saline with Tween-80
[9] = dose: 200.0 mg/kg/injection, schedule: Q04DX003 (ip), vehicle: saline with Tween-80
[10] = dose: 400.0 mg/kg/injection, schedule: Q04DX003 (ip), vehicle: saline with Tween-80

Measured: T/C

[Cl][Sn]([CH]1CCCCC1)([CH]1CCCCC1)[CH]1CCCCC1
inactive: dose: 12.5 mg/kg/injection, schedule: Q04DX002 (ip), vehicle: gum acacia 101 % of control | dose: 25.0 mg/kg/injection, schedule: Q04DX002 (ip), vehicle: gum acacia 101 % of control

CC(C)OC(=O)C(C)(OC(=O)c1ccccc1)c1ccccc1 (configuration not stated)
inactive: [1] 94 % of control | [2] 91 % of control | [3] 88 % of control

Clc1ccccc1/C=N/Nc1nnc(N/N=C/c2ccccc2Cl)c2ccccc12
inactive: [4] 95 % of control | [5] 89 % of control | [6] 89 % of control | dose: 400.0 mg/kg/injection, schedule: Q01DX001 (ip), vehicle: carboxymethylcellulose (CMC) 89 % of control

O=Cc1[nH]c(=S)[nH]c(=O)c1Cc1ccc2ccccc2c1
inactive: dose: 100.0 mg/kg/injection, schedule: Q01DX001 (ip), vehicle: saline with Tween-80 104 % of control | dose: 200.0 mg/kg/injection, schedule: Q01DX001 (ip), vehicle: saline with Tween-80 104 % of control

CC(=O)Nc1cc(C(=O)Nc2cccc(C3=NCCN3)c2)ccc1C(=O)Nc1cccc(C2=NCCN2)c1
inactive: dose: 1.3 mg/kg/injection, schedule: Q01DX Z (ip), vehicle: methylcellulose (MC) 96 % of control

CCCCSc1nc(SCCCC)nc(SCCCC)n1
inactive: dose: 100.0 mg/kg/injection, schedule: Q04DX002 (ip), vehicle: saline with Tween-80 96 % of control | dose: 200.0 mg/kg/injection, schedule: Q04DX002 (ip), vehicle: saline with Tween-80 111 % of control | dose: 400.0 mg/kg/injection, schedule: Q04DX002 (ip), vehicle: saline with Tween-80 89 % of control

COc1cc(/C=N/NC(=O)CC(C)O)ccc1O (configuration not stated)
inactive: [1] 104 % of control | [2] 102 % of control | [3] 104 % of control

BrC1CCCCCCC1Br (configuration not stated)
inactive: dose: 25.0 mg/kg/injection, schedule: Q04DX003 (ip), vehicle: saline 102 % of control | dose: 50.0 mg/kg/injection, schedule: Q04DX003 (ip), vehicle: saline 96 % of control | dose: 100.0 mg/kg/injection, schedule: Q04DX003 (ip), vehicle: saline 91 % of control

CC(=O)OCC1OC(n2ncc3c(=O)[nH]cnc32)C(OC(C)=O)C1OC(C)=O (configuration not stated)
inactive: dose: 12.5 mg/kg/injection, schedule: Q01DX005 (ip), vehicle: water 103 % of control | dose: 25.0 mg/kg/injection, schedule: Q01DX005 (ip), vehicle: water 104 % of control | dose: 50.0 mg/kg/injection, schedule: Q01DX005 (ip), vehicle: water 97 % of control | dose: 100.0 mg/kg/injection, schedule: Q01DX005 (ip), vehicle: water 98 % of control | dose: 200.0 mg/kg/injection, schedule: Q01DX005 (ip), vehicle: water 92 % of control

COc1cc(C=Nc2ccc(Cl)cc2)ccc1N(CCCl)CCCl
inactive: dose: 21.0 mg/kg/injection, schedule: Q01DX015 (ip), vehicle: carboxymethylcellulose (CMC) 110 % of control | dose: 36.0 mg/kg/injection, schedule: Q01DX015 (ip), vehicle: carboxymethylcellulose (CMC) 95 % of control | [4] 120 % of control | [5] 108 % of control | dose: 133.0 mg/kg/injection, schedule: Q01DX001 (ip), vehicle: carboxymethylcellulose (CMC) 107 % of control | [6] 117 % of control

CN(C)Cc1cc(O)c(CN(C)C)cc1O
inactive: dose: 25.0 mg/kg/injection, schedule: Q01DX009 (ip), vehicle: saline with Tween-80 110 % of control | dose: 25.0 mg/kg/injection, schedule: Q04DX003 (ip), vehicle: saline with Tween-80 88 % of control | [7] 103 % of control | dose: 50.0 mg/kg/injection, schedule: Q04DX003 (ip), vehicle: saline with Tween-80 93 % of control | [8] 96 % of control

CC[C@@]1(O)C(=O)OCc2c1cc1n(c2=O)Cc2c-1nc1ccccc1c2Cl
inactive: [1] 117 % of control | [3] 88 % of control

O=[N+]([O-])c1ccc(-c2ccccc2)c([As](=O)(O)O)c1
inactive: dose: 25.0 mg/kg/injection, schedule: Q04DX002 (ip), vehicle: saline with Tween-80 106 % of control

[O-]c1c[n+](-c2ccc3ccccc3c2)no1
inactive: dose: 100.0 mg/kg/injection, schedule: Q04DX003 (ip), vehicle: carboxymethylcellulose (CMC) 114 % of control | dose: 200.0 mg/kg/injection, schedule: Q04DX003 (ip), vehicle: carboxymethylcellulose (CMC) 110 % of control | dose: 400.0 mg/kg/injection, schedule: Q04DX003 (ip), vehicle: carboxymethylcellulose (CMC) 104 % of control

Cc1cccc(NCc2ccc(Cl)cc2Cl)c1
inactive: [7] 106 % of control | dose: 100.0 mg/kg/injection, schedule: Q01DX009 (ip), vehicle: saline with Tween-80 103 % of control | [8] 93 % of control and 88 % of control | dose: 200.0 mg/kg/injection, schedule: Q01DX009 (ip), vehicle: saline with Tween-80 98 % of control | [9] 95 % of control | [10] 96 % of control and 101 % of control

CNC(=O)Oc1cccc2c1OC(C)(C)C2
inactive: dose: 1.56 mg/kg/injection, schedule: Q01DX001 (ip), vehicle: Klucel (hydroxypropylcellulose) (HPC) 96 % of control | dose: 3.13 mg/kg/injection, schedule: Q01DX001 (ip), vehicle: Klucel (hydroxypropylcellulose) (HPC) 103 % of control

Cn1ccc(=O)nc1
inactive: dose: 100.0 mg/kg/injection, schedule: Q01DX009 (ip), vehicle: saline 94 % of control | dose: 200.0 mg/kg/injection, schedule: Q01DX009 (ip), vehicle: saline 103 % of control | dose: 400.0 mg/kg/injection, schedule: Q01DX009 (ip), vehicle: saline 100 % of control

Cc1nc(NC(=O)CBr)[nH]c(=O)c1CCC(C)C
inactive: [8] 107 % of control | [9] 100 % of control | [10] 88 % of control
